Measured values reported in patent publication US20120190788A1, “COLORING PARTICLES” (CANON KABUSHIKI KAISHA, priority 2011, published 2012).
≈ marks a conversion by molar mass, not a printed value.

Experiments:
physchem = settings: 25 °C
Excerpt: Fine and highly monodispersed coloring particles intended according to aspects of the present invention may contain a dye hardly soluble in the water contained in the second liquid described later. […] The solubility parameter of the dye, however, may vary depending on the pH of the water containing it.
The solubility parameter used according to aspects of the present invention can be calculated by measuring the degree of water solubility (mol/L) of the dye by any known experimental method and then substituting the measurement into equation (1). […] For dyes such as metal complex dyes and salt dyes, the metal or salt is first removed, and then the degree of solubility is calculated using ACD/Structure Design Suite and the solubility parameter is calculated from the value.

[1] = in water; cited from earlier work

solubility (physchem; pH 6, aqueous buffer) [nM]	solubility (physchem; pH 11, aqueous buffer) [nM]	Compound	Critical micelle concentration [1] [g/mL]
≤ 0.631	–	CC1(C)Nc2cccc3c(/N=N/c4ccc(/N=N/c5ccccc5)c5ccccc45)ccc(c23)N1 [dye 1]	–
≤ 0.631	–	Cc1cccc(Nc2cccc3c2C(=O)c2cccc(Nc4cccc(C)c4)c2C3=O)c1 [dye 2]	–
0.794 (≈ 0.387 ng/mL)	813 (≈ 396 ng/mL)	Cc1cc(Br)c(Nc2ccc(O)c3c2C(=O)c2ccccc2C3=O)c(Br)c1 [dye 4]	–
–	–	CCCCCCCCCCCCOS(=O)(=O)[O-].[Na+] [sodium dodecyl sulfate]	0.0025
